{"source": "patent US20150133411A1", "about": "“COMPOUNDS WITH TRPV4 ACTIVITY, COMPOSITIONS AND ASSOCIATED METHODS THEREOF” (The University of Utah Research Foundation, priority 2012, published 2015)", "key": {"[1]": {"tested_on": "retinal neurons (RGCs) and glia (Müller cells)", "assay": "Hypotonic stimuli: cell swelling (change in cell area) and [Ca++]i", "type": "cell-based", "details": "hypotonic stimuli, 300 mOsm to 190 mOsm", "excerpt": "FIG. 18A illustrates the effect of hypotonic stimuli on cell swelling as measured by change in cell area. Hypotonic stimuli were generated by replacing extracellular sodium levels to lower osmolarity from 300 mOsm to 190 mOsm."}, "retinal ganglion cells [2]": {"tested_on": "retinal ganglion cells", "assay": "TUNEL assay of apoptotic cell death in retinas", "type": "cell-based", "method": "Terminal deoxynucleotidyl transferase-mediated dUTP-biotin nick end labeling (TUNEL) is a common method for detecting fragmentation that results from apoptotic signaling cascades. Retinas were embedded, cryosectioned, and processed for the TUNEL assay following the protocol by Gavrieli et al. (1992). After 30 min. rehydration in 70% ethanol, 2×5 min. rinses in PBS and 1% Triton-X in 1% citrate buffer (pH 7.3), the slides were subjected to a final rinse in PBS. Slides were then incubated for 30 min. in the reaction buffer (30 mM Trizma-HCl, 140 mM cacodylate, 1.0 mM CaCl2, 0.2% Triton X-100, pH 7.2). Positive controls were treated with DNAse I (Roche Diagnostics; Branford, Conn.; 10 U/ml) in the reaction buffer. Next, slides were treated for 1 hour with 0.03 units/μl terminal transferase and 4 μM biotin-16-dUTP (Roche Diagnostics). The reaction was terminated in 30 mM Na+ citrate, 300 mM NaCl and 0.2% Triton X-100 in PBS (5 min.) and rinsed in PBS (2×5 min), exposed to 1% bovine serum albumin in PBS for 20 min and rinsed. Apoptotic cells were visualized with a confocal microscope (Zeiss LSM510) and categorized by size. […] This was blocked by RuR and by the TRPV4 antagonist Compound 1."}, "MB model of glaucoma": {"tested_on": "MB model of glaucoma", "assay": "IOP time course after single eye drop in MB model of glaucoma", "type": "in vivo, mouse", "details": "eye drop", "method": "Specifically, microbeads (MBs) were injected into the anterior chamber of a mouse eye as described in Example 2 with PBS-injected eyes used as controls. Compound 1 (10 mg/kg body weight) (or PBS vehicle) was injected intraperitoneally (IP). […] IOP was measured in mice between 10:00 AM and 1:00 PM with the TonoLab rebound tonometer (Colonial Medical Supply, Franconia, NH/Tyolat, Helsinki, Finland). Mice were sedated with IP injection of Avertin with final amount calculated by weight (e.g., 0.5 ml for 21-24 g animals). Animals were placed on a jack stand platform and the tonolab was clamped on a ring stand and centered onto the mid-cornea. During measurements animal were neither restrained nor touched. Each eye was measured twenty consecutive times, the highest and lowest values were discarded and the values were averaged.\nFIG. 9 illustrates the short-term effects of a single dose of Compound 1 (eye drop) in the MB model of glaucoma. IOP was measured as described in Example 3 at the indicated time points after receiving a drop of Compound 1. Compound 1 reduced IOP beginning at 1 hour after dosing and continued through 6 hours after dosing.\nFIG. 10 illustrates a time course of Compounds 1, 2, 5 and Compound 2-HCl as well as a positive control compound, timolol, with regard to inhibition of IOP. The experiment was conducted as described in Example 9. Each of the TRPV4 antagonists reduced IOP with a similar time course. Specifically, Compounds 1, 2, 5 and Compound 2-HCl reduced IOP for at least 6 hours after dosing.\nFIG. 11 illustrates a time course of Compound 2-HCl activity. The experiment was conducted as described in Example 9. […] 2\nFIG. 12 illustrates a comparison of the time course of Compound 2-HCl and Compound 5. The experiment was conducted as described in Example 9."}, "Müller cells": {"tested_on": "Müller cells", "assay": "Arachidonic acid-induced [Ca2+]i in Müller cells", "type": "cell-based", "details": "10 μM", "method": "This response is blocked by Compound 1 (1 μM)."}, "TRPV4 [3]": {"target": "T1, TRPV4 (Mus musculus, UniProt Q9EPK8)", "T1 sequence (Q9EPK8 whole entry)": "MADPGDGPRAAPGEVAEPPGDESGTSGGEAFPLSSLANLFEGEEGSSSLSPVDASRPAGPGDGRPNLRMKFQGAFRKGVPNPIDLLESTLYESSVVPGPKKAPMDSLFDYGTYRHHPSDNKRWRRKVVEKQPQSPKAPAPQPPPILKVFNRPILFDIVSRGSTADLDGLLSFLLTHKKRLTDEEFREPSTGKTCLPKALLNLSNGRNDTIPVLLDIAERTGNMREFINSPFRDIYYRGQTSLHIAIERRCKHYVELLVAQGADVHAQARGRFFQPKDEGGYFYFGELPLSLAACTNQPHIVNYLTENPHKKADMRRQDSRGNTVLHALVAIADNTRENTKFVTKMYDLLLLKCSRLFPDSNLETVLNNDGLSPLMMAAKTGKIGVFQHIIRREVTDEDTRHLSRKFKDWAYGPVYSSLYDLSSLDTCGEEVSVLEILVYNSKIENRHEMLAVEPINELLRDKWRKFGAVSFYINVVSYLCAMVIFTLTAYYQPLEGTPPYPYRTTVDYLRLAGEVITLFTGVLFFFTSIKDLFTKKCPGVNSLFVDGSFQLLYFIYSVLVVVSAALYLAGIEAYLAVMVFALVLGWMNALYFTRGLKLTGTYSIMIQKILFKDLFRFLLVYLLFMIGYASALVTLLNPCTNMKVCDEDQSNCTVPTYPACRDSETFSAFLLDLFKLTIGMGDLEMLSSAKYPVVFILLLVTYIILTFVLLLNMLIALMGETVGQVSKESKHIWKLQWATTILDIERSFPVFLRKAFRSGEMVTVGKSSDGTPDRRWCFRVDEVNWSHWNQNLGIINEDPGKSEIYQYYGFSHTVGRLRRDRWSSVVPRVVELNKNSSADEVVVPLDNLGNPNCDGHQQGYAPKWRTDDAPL", "assay": "GSK-evoked [Ca++]i in retinal Müller glial cells", "type": "cell-based", "parameters": "endogenous in cells; host or cells: retinal Müller glial cells", "details": "retinal Müller glial cells; agonist alone"}, "retinal ganglion cells [4]": {"tested_on": "retinal ganglion cells", "assay": "In vivo intraocular injection of GSK, NeuN+ RGC count", "details": "intraocular injection 100-300 nM, retinas after 48 hours", "method": "In this experiment, GSK (100-300 nM) was injected intraocularly with a Hamilton syringe. Retinas were isolated after 48 hours, fixed and labeled with the RGC marker antibody NeuN. NeuN-immunopositive somata in the ganglion cell layer, shown in the panel on the right, were counted. The bar graph represents quantification of NeuN^+ cells in the indicated experimental groups."}, "TRPV4 [5]": {"target": "T2, TRPV4 (Homo sapiens, UniProt Q9HBA0)", "T2 construct": "endogenous in cells; host or cells: primary human trabecular meshwork cells from trabeculectomy tissue", "T2 sequence (Q9HBA0 whole entry)": "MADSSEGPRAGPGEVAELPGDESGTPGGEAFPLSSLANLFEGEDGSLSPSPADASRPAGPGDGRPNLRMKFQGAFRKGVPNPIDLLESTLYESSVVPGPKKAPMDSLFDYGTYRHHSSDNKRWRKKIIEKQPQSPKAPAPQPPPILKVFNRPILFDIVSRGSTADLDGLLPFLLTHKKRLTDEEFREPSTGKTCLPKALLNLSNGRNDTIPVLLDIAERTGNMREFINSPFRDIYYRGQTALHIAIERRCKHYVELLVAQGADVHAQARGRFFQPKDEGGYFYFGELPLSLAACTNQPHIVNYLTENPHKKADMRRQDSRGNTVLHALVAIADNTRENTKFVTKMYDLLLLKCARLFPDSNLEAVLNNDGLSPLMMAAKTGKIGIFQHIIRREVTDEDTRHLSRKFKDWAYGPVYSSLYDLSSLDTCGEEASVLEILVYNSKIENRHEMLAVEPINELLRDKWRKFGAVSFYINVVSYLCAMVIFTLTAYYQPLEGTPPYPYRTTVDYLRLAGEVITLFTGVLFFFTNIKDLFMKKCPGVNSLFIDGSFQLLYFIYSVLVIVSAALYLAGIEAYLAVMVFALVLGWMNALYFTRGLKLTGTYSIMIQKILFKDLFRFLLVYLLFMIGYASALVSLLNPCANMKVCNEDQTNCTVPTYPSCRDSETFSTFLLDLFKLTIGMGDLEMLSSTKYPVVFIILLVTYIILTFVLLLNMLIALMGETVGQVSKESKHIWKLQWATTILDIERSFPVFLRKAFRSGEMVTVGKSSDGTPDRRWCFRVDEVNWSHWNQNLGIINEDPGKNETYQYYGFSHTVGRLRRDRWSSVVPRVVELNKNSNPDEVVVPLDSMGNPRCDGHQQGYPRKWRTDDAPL", "assay": "Fura-2 calcium imaging of human trabecular meshwork (TM) cells", "type": "cell-based", "details": "bath application 100 nM", "method": "Pieces of tissue were isolated from a trabeculectomy. Trabecular meshwork cells (TM) were kept in cold L15 medium and then loaded with Fura-2 (10 μm) for 1 hour. Fibroblast-shaped cells were imaged from a TM chunk (˜500 μm×500 μm) with a 40× water immersion objective. The sampling rate was at 6 second intervals. Krebs Ringer Bicarbonate Recording buffer (7.4, 284 mOsm) was prepared as reported by Anthony et al., 1998, IOVS; Prostaglandin F2α receptors in the human trabecular meshwork.\nCalcium imaging was performed on TM cells isolated from human patients. In brief, dissociated human TM cells embedded within the tissue were dissociated and plated on concanavalin A-coated (0.2 mg/ml; Sigma) coverslips, loaded with fura-2 AM ([…]; Invitrogen Life Technologies) for 15 min-1 hour and washed for 10 min in dye-free L-15 medium. […] Fluorescence emission was high-pass filtered at 510 nm and captured with cooled digital CCD cameras (HQ2, Photometrics). […] Fluorescence imaging was performed on regions of interest (ROIs) encompassing the TM cell somata, typically at 3×3 binning. Background fluorescence was measured in similarly sized ROIs in neighboring areas devoid of cells. After sequential image acquisition (0.167-0.5 Hz) of cell fluorescence at 340/380 nm, the background was subtracted. […]"}, "TRPV4 [6]": {"target": "T1, TRPV4", "assay": "AGB cation influx into retinal cells (anti-AGB antibody)", "type": "cell-based", "parameters": "these two cell types express TRPV4 channels in the mouse retina; from tissue; host or cells: mouse retina (retinal ganglion cells and Müller glial cells)", "details": "mouse retina; agonist alone", "method": "FIG. 16 illustrates the effect of the TRPV4 agonist GSK on cation influx into mouse retinal cells of the mouse retina. The influx was determined using the anti-AGB antibody, as described by Marc R E (J Comp Neurol 407(1): 47-64, 1999). AGB is a membrane permeant cation that can flow through most known cation channels. Using an anti-AGB antibody, it can be determined where the cation flux occurs and, therefore, which cells are activated."}}}
{"smiles": "CC(=O)OCOC(=O)CN(CC(=O)OCOC(C)=O)c1ccccc1OCCOc1ccccc1N(CC(=O)OCOC(C)=O)CC(=O)OCOC(C)=O", "note": "[BAPTA-AM, reference compound]", "values": [{"measurement": "cell swelling (change in cell area)", "setting": "[1]", "result": "significantly reduced"}]}
{"smiles": "N.N.N.N.N.N.N.N.N.N.N.N.N.N.[Cl-].[Cl-].[Cl-].[Cl-].[Cl-].[Cl-].[O-2].[O-2].[Ru+3].[Ru+3].[Ru+4]", "note": "[Ruthenium Red]", "values": [{"measurement": "apoptotic cell death induced by hypotonic swelling (TUNEL)", "setting": "retinal ganglion cells [2]; 190 mOsm saline, Compound 1 1 uM, RuR 10 μM", "result": "block apoptotic cell death"}, {"measurement": "apoptotic cell death induced by TRPV4 agonist GSK (TUNEL)", "setting": "retinal ganglion cells [2]; GSK 100 nM, Compound 1 1 uM, RuR 10 μM", "result": "block apoptotic cell death"}]}
{"smiles": "Cc1c(C(=O)Nc2cccc(C(=O)OC(C)C)c2)cc(-c2ccccc2)n1CCCN1CCOCC1.Cl", "note": "[Compound 2-HCl, iso-propyl 3-(2-methyl-1-(3-morpholinopropyl)-5-phenyl-1H-pyrrole-3-carboxamido)benzoate hydrochloride]", "values": [{"measurement": "time of maximal inhibition of IOP", "setting": "MB model of glaucoma; after dosing", "result": 6, "unit": "h"}]}
{"smiles": "CC(C)(C)NC[C@H](O)COc1nsnc1N1CCOCC1", "note": "[timolol, reference compound]", "values": [{"measurement": "dose-response curve for inhibition of IOP relative to TRPV4 antagonists", "setting": "MB model of glaucoma; positive control", "result": "left-shifted dose-response curve"}]}
{"smiles": "CCCCC/C=C\\C/C=C\\C/C=C\\C/C=C\\CCCC(=O)O", "note": "[arachidonic acid, reference compound]", "values": [{"measurement": "[Ca2+]i response", "setting": "Müller cells", "result": "increase in [Ca2+]i"}]}
{"smiles": "CC(C)C[C@H](NC(=O)c1cc2ccccc2s1)C(=O)N1CCN(C(=O)[C@H](CO)NS(=O)(=O)c2ccc(Cl)cc2Cl)CC1", "note": "[GSK1016790A, reference compound]", "values": [{"measurement": "death of retinal ganglion cells (TUNEL staining)", "setting": "retinal ganglion cells [2]; 100 nM, agonist alone", "result": "induced death of retinal ganglion cells"}, {"measurement": "intracellular calcium concentration [Ca++]i", "setting": "TRPV4 [3]", "result": "evokes sustained increases"}, {"measurement": "number of retinal ganglion cells (NeuN+ somata)", "setting": "retinal ganglion cells [4]", "result": "substantially reduces the number of retinal ganglion cells"}, {"measurement": "340/380 fluorescence ratio (intracellular calcium [Ca++]i)", "setting": "TRPV4 [5]", "result": "increased 340/380 fluorescence ratio"}, {"measurement": "number of AGB+ cells (cation influx)", "setting": "TRPV4 [6]", "result": "increased the number of AGB^+ retinal ganglion cells and Müller glial cells"}]}
